Measured values from PubChem BioAssay (NCI).
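These data come from cells grown in 96-well plates and exposed to compound for 48 hours at five concentrations. Here, GI50 denotes the concentration required for 50% inhibition of growth. At the TGI there is no net growth.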 Activity calls are given as the source filed them. No stated cut-off is given here; in the data, active means GI50 below about 0.43 µM; inactive means the rest.

How the values were obtained:
Experiment in all cases: inhibition of tumour cell growth, NCI panel, 48 h
MDA-N = test system: MDA-N
MDA-MB-435 = test system: MDA-MB-435
HOP-18 NSCLC = test system: HOP-18 NSCLC
DMS 273 small cell lung = test system: DMS 273 small cell lung
SNB-78 CNS = test system: SNB-78 CNS
KM20L2 colon = test system: KM20L2 colon
RXF-631 renal = test system: RXF-631 renal
DLD-1 colon = test system: DLD-1 colon
DMS 114 small cell lung = test system: DMS 114 small cell lung

Row | SMILES | TGI (MDA-MB-435) [µM] | GI50 (MDA-MB-435) [µM] | TGI (HOP-18 NSCLC) [µM] | TGI (DMS 273 small cell lung) | TGI (SNB-78 CNS) | TGI (KM20L2 colon) [µM] | TGI (DLD-1 colon) [µM] | TGI (DMS 114 small cell lung) | further results
1 | NCC(Cc1ccccc1)P(=O)(O)O (stereo not given) | > 100 | – | – | – | – | – | – | – | TGI (MDA-N): > 100 µM
2 | CCOC(=O)C1=C(C)N(Cc2ccc(Cl)cc2Cl)[C@]2(C#N)C(O)=C(Cl)C(Cl)=C(O)[C@]12C#N | > 100 | > 100 | – | – | – | – | – | – | –
3 | CC(=O)c1c(O)c2c([nH]c1=O)CCCC2 | – | – | > 100 | 70.5 µM | > 100 µM | > 100 | > 100 | > 100 µM | TGI (RXF-631 renal): 59.2 µM
4 | O=C(CCC(=O)C1Cc2ccccc2C1=O)Nc1cccc(C(F)(F)F)c1 (stereo not given) | – | – | > 100 | > 100 µM | > 100 µM | > 100 | > 100 | – | TGI (RXF-631 renal): > 100 µM
5 | O=c1c2cccc3cccc(c4n1CCCN=4)c32 | – | – | > 100 | > 100 µM | > 100 µM | > 100 | > 100 | > 100 µM | TGI (RXF-631 renal): > 100 µM
6 | O=C1c2ccoc2C(=O)c2oc(=O)ccc21 | – | – | 36 | 31.6 µM | 42.8 µM | > 65.4 | 36.4 | 4.42 µM | –
7 | CC(C)(C)c1cc(C(OCCl)(C(F)(F)F)C(F)(F)F)c2c(c1)C(C(F)(F)F)(C(F)(F)F)OC21c2ccccc2C(=O)c2ccccc21 | – | – | > 100 | > 100 µM | > 100 µM | > 100 | > 100 | > 100 µM | TGI (RXF-631 renal): > 100 µM
8 | C/C(CC(=O)Nc1cccc(Cl)c1C)=N\N=C(N)N | – | – | > 100 | > 100 µM | > 100 µM | > 100 | > 100 | > 100 µM | –
9 | O=c1c2ccccc2n2cnc3ccc(NCCNCCO)c1c32 | 6.68 | – | 26.8 | – | 15.5 µM | 12.1 | 16.9 | 12.2 µM | TGI (RXF-631 renal): 8.68 µM; TGI (MDA-N): 9.61 µM
10 | Cc1cc(-c2ccco2)cc(C)c1/C=C/c1cncc(-c2nn[nH]n2)c1 | > 25 | > 25 | – | – | – | – | – | – | –
11 | O=C(Nc1nc2c(s1)CCc1c-2c(Br)n(Cc2ccccc2)c1Br)c1ccccc1 | 35.9 | 2.97 | – | – | – | – | – | – | –
12 | O=[N+]([O-])c1ccc(/C=C\c2ccc3c(c2)OCO3)c([N+](=O)[O-])c1 | 22.1 | – | – | – | – | – | – | – | TGI (MDA-N): 22.4 µM
13 | O=C(Nc1ccc(Cl)c(Cl)c1)C1C(=O)N(c2ccc(Cl)c(Cl)c2)C(=O)/C1=N\O (stereo not given) | – | – | > 100 | > 100 µM | > 100 µM | > 100 | > 100 | 83.7 µM | –
14 | COC(=O)c1cc2ccccc2c2nc3ccccc3c(Cl)c12 | – | – | – | > 100 µM | – | 29 | > 100 | > 100 µM | TGI (RXF-631 renal): > 100 µM
15 | CCOC(=O)c1cc2cc(OCc3ccccc3)ccc2[nH]1 | > 100 | > 100 | – | – | – | – | – | – | –
16 | Nc1n[nH]c2ccc([C@@H]3Nc4c(F)cc5[nH]ncc5c4[C@H]4C5CCC(C5)[C@@H]34)cc12 (stereo not given in full) | 0.161 | 0.0327 | – | – | – | – | – | – | –
17 | CCC1=C(c2ccc(OC)cc2)CC[C@]2(CCNC2=O)[C@@H]1C | 47.2 | – | – | – | – | – | – | – | TGI (MDA-N): 58.3 µM
18 | O=C(O)Cn1ccc(=O)c2c([N+](=O)[O-])cccc21 | > 100 | – | – | – | – | – | – | – | TGI (MDA-N): > 100 µM

Row | SMILES | TGI (MDA-MB-435) [µM] | GI50 (MDA-MB-435) [µM] | TGI (HOP-18 NSCLC) [µM] | TGI (DMS 273 small cell lung) | TGI (SNB-78 CNS) | TGI (KM20L2 colon) [µM] | TGI (DLD-1 colon) [µM] | TGI (DMS 114 small cell lung) | further results
19 | CCOC(=O)n1c2ccccc2c(=O)n1CCO | – | – | – | – | – | – | – | – | TGI (MDA-N): > 100 µM
20 | COc1cc2c3c(n(CCCN4CCSCC4)c(=O)c2cc1OC)-c1cc2c(cc1C3=O)OCO2 | > 100 | > 100 | – | – | – | – | – | – | –
21 | Cc1cn2c(/C=C3/C(=O)Nc4ccc(C(=O)O)cc43)c(C)nc2s1 | > 100 | > 100 | – | – | – | – | – | – | –
22 | NNC(=O)N/N=C1\CNC(=O)C(=O)C1c1nc2ccccc2s1 (stereo not given) | – | – | – | > 100 µM | > 100 µM | > 100 | > 100 | > 100 µM | –
23 | Oc1ccc(-c2[nH]c3ccccc3c2-c2nc3ccccc3o2)cc1 | 8.74 | 2.26 | – | – | – | – | – | – | –
24 | Nc1c(C(=O)Nc2ccccc2O)[n+]([O-])c2ccccc2[n+]1[O-] | – | – | > 100 | > 100 µM | > 100 µM | > 100 | > 100 | 63.5 µM | TGI (RXF-631 renal): > 100 µM
25 | CC1=NN(c2nc(N)nc(/C=C\c3ccccc3)n2)C(C)(C)C1 | 7.13 | 1.97 | – | – | – | – | – | – | –
26 | COc1ncc2cc1NS(=O)(=O)c1cccc(c1)C(=O)NCC1=CC=C(S1)c1ncnc3c1SC2=C3C | 3.43 | 0.434 | – | – | – | – | – | – | –
27 | COc1ccc2c3c(c(C(=O)O)oc13)C(CCC(=O)O)CC2 (stereo not given) | – | – | > 100 | > 100 µM | > 100 µM | > 100 | > 100 | > 100 µM | –
28 | CCN(CC)CCS(=O)(=O)CCNc1ccnc2cc(Cl)ccc12 | > 20.5 | 1.65 | – | – | – | – | – | – | –
29 | Nc1c(-c2nc3ccccc3s2)[n+]([O-])c2ccccc2[n+]1[O-] | – | – | 86.2 | – | > 100 µM | > 100 | > 100 | > 100 µM | –
30 | NC(=O)C(=O)Cc1nc2ccccc2s1 | – | – | > 100 | – | > 100 µM | > 100 | – | > 100 µM | –
31 | CN(C)CCNC(=O)c1cccc2cc3ccc4ccccc4c3nc12 | – | – | 0.665 | 0.163 µM | 12.5 µM | 0.988 | 0.817 | – | –
32 | CC/C(=C(/c1ccc(/C=C/C(=O)O)cc1)c1ccc2[nH]ncc2c1)c1ccc(F)cc1Cl | 8.38 | 2.76 | – | – | – | – | – | – | –
33 | c1ccc2c(c1)[O][Sn][O]2 | – | – | – | > 150 µg/mL | > 150 µg/mL | – | – | > 150 µg/mL | outcome (HOP-18 NSCLC): inactive; GI50 (DMS 273 small cell lung): 10.4 µg/mL; GI50 (SNB-78 CNS): > 150 µg/mL; outcome (KM20L2 colon): inactive; outcome (RXF-631 renal): inactive; GI50 (DMS 114 small cell lung): 8.87 µg/mL
34 | Nc1ncnc2sc(Nc3ccccc3)nc12 | – | – | – | > 100 µM | > 100 µM | > 100 | > 100 | – | TGI (RXF-631 renal): > 100 µM
35 | CC1(C)OC2OC(COC(=O)C(c3ccccc3)c3ccccc3)C3OC(C)(C)OC3C2O1 (stereo not given) | – | – | – | – | – | > 100 | > 100 | > 100 µM | –
